The assay concerns the target T1, HCV NS5B RdRp genotype 1b (Hepatitis C virus genotype 1b, UniProt Q9WMX2).
T1 construct: The protein was expressed with an 18 amino acid C-terminal truncation to enhance the solubility; made in house; host or cells: E. coli BL21(DE3)
The experiment in a line: HCV NS5B RdRp enzyme assay. It counts as biochemical. The settings on record: IC50, HCV RdRp genotype 1b enzyme, C-terminal 18 aa truncated; average of single point IC50 values. As to the method: HCV NS5B RdRp cloning, expression and purification. The cDNA encoding the NS5B protein of HCV, genotype 1b, was cloned into the pET21a expression vector. The protein was expressed with an 18 amino acid C-terminal truncation to enhance the solubility. The E. coli competent cell line BL21(DE3) was used for expression of the protein. Cultures were grown at 37° C. for ˜4 hours until the cultures reached an optical density of 2.0 at 600 nm. The cultures were cooled to 20° C. and induced with 1 mM IPTG. Fresh ampicillin was added to a final concentration of 50 ug/ml and the cells were grown overnight at 20° C.
Cell pellets (3L) were lysed for purification to yield 15-24 mgs of purified NS5B. The lysis buffer consisted of 20 mM Tris-HCl, pH 7.4, 500 mM NaCl, 0.5% triton X-100, 1 mM DTT, 1 mM EDTA, 20% glycerol, 0.5 mg/ml lysozyme, 10 mM MgCl2, 15 ug/ml deoxyribonuclease I, and Complete TM protease inhibitor tablets (Roche). After addition of the lysis buffer, frozen cell pellets were resuspended using a tissue homogenizer. To reduce the viscosity of the sample, aliquots of the lysate were sonicated on ice using a microtip attached to a Branson sonicator. The sonicated lysate was centrifuged at 100,000×g for 1 hr at 4° C. and filtered through a 0.2 μm filter unit (Corning).
The protein was purified using three sequential chromatography steps: Heparin sepharose CL-6B, polyU sepharose 4B, and Hitrap SP sepharose (Pharmacia). The chromatography buffers were identical to the lysis buffer but contained no lysozyme, deoxyribonuclease I, MgCl2 or protease inhibitor and the NaCl concentration of the buffer was adjusted according to the requirements for charging the protein onto the column. Each column was eluted with a NaCl gradient which varied in length from 5-50 column volumes depending on the column type. After the final chromatography step, the resulting purity of the enzyme is >90% based on SDS-PAGE analysis. The enzyme was aliquoted and stored at −80° C.
HCV NS5B RdRp enzyme assay. HCV RdRp genotype 1b assays were run in assay buffer composed of 20 mM Tris-HCl, pH 7.5, 2.5 mM KCl, 5 mM MgCl2, 1 mM DTT, 1.6 U RNAse inhibitor (Promega N2515), in 96 well plates (Falcon 3918). All compounds were serially diluted in DMSO and diluted further in assay buffer such that the final concentration of DMSO in the assay was 2%. Compounds were serially diluted (3-fold each time) for a 7 point inhibition analysis. HCV RdRp genotype 1b enzyme was used at a final concentration of 28 nM. A polyA template was used at 28 nM, and the oligo-dT12-18 primer was used at 840 nM final concentration. Preannealed primer and template were obtained commercially (Amersham 27-787802). ^3H-UTP was used at 0.125 μCi (1 μM total UTP). Reaction was initiated by the addition of enzyme. Reactions were incubated at 30° C. for 45 min, and stopped by adding 30 ul of 20% ice cold TCA. Plates were chilled for 30 minutes and harvested onto Unifilter-96, GF/B plates (Packard, 6005177) using a Packard FilterMate Cell Harvester. The harvest plates were prewashed 3 times, 200 ul/well, with 100 mM NaPPi. Harvested filters were washed 30 times, 200 ul/well, with distilled water followed by ethanol. Filter plates were dried, and 30 ul/well microscint-20 was added. Plates were read on a Packard Top Count NXT.
The IC50 values for compounds were determined using […] different [I], combined with 7 nM enzyme, 800 ng of the template-primer polyC/oligoG12 (1:5 molar ratio), and 0.7 uM of ^3H GTP containing 1 uCi. The observed fractional activity (fa=vi/vo) was used in the equation IC50=[I]/(1/fa-1) to determine a single point IC50 value. Typically, the single point IC50 values derived from [I] that produced fractional activities in the range of 0.1 to 0.8 relative to the uninhibited control were averaged to calculate the IC50 value for each compound.
T1 sequence (Q9WMX2 2420-2992): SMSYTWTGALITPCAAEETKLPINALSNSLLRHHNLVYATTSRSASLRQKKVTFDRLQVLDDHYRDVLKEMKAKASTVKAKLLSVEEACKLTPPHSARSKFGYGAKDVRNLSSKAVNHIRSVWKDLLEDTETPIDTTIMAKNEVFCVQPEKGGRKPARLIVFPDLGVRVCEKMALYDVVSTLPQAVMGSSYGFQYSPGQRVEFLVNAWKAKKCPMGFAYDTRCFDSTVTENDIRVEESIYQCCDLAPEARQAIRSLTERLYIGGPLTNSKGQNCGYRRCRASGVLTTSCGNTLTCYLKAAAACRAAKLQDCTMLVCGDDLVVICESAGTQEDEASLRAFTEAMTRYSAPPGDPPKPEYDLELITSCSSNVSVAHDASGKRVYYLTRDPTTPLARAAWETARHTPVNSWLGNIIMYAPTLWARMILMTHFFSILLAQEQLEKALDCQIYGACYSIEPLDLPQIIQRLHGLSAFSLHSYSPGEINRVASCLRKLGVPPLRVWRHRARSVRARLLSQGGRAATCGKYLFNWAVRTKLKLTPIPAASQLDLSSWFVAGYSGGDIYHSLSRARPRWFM
Compound `O=C(O)c1ccc(-c2cccc(O)c2)c(COc2ccc(-c3nc4cc(-c5nnn[nH]5)ccc4n3C3CCCCC3)cc2)c1` [Example 33] displayed an IC50 of 40 nM.
As for `O=C(NCCCO)c1ccc(-c2ccsc2)c(COc2ccc(-c3nc4cc(-c5nnn[nH]5)ccc4n3C3CCCCC3)cc2)c1` [Example 135], inhibition was half-maximal at 700 nM (IC50).
In turn, `O=C(O)c1ccc(-c2cncnc2)c(COc2ccc(-c3nc4cc(-c5nnn[nH]5)ccc4n3C3CCCCC3)cc2)c1` [Example 4, 3-[[4-[1-Cyclohexyl-5-(1H-tetrazol-5-yl)-1H-benzimidazol-2-yl]phenoxy]methyl]-4-(5-pyrimidinyl)benzoic acid] registered an IC50 of 630 nM.
Regarding `NC(=O)CCNC(=O)c1ccc(-c2cccc(O)c2)c(COc2ccc(-c3nc4cc(-c5nnn[nH]5)ccc4n3C3CCCCC3)cc2)c1` [Example 55], the IC50 is 200 nM.
`O=C(O)c1ccc(-c2ccc(F)cc2)c(COc2ccc(-c3nc4cc(-c5nnn[nH]5)ccc4n3C3CCCCC3)cc2)c1` [Example 24] yielded an IC50 of 50 nM.
As for `CNC(=O)c1ccc(-c2ccc(OC)c(OC)c2)c(COc2ccc(-c3nc4cc(-c5nnn[nH]5)ccc4n3C3CCCCC3)cc2)c1` [Example 91], the IC50 came out at 260 nM. This IC50 is about 5.2-fold higher than that of the compound before.
Regarding `CC(C)(C)OC(=O)C(Cc1ccc(O)cc1)NC(=O)c1ccc(-c2ccc(F)c(Cl)c2)c(COc2ccc(-c3nc4cc(-c5nnn[nH]5)ccc4n3C3CCCCC3)cc2)c1` (stereo not drawn) [Example 83], the midpoint of inhibition, the IC50, lay at 560 nM.
To `COc1ccc(-c2ccc(C(=O)O)cc2COc2ccc(-c3nc4cc(-c5nnn[nH]5)ccc4n3C3CCCCC3)cc2)cc1OC` [Example 44] belongs 80 nM; to `NC(=O)CCNC(=O)c1ccc(-c2ccc(F)c(Cl)c2)c(COc2ccc(-c3nc4cc(-c5nnn[nH]5)ccc4n3C3CCCCC3)cc2)c1` [Example 59], 920 nM; to `O=C(c1ccc(-c2ccsc2)c(COc2ccc(-c3nc4cc(-c5nnn[nH]5)ccc4n3C3CCCCC3)cc2)c1)N1CCC(O)CC1` [Example 137], 1300 nM.
Consider `O=C(O)C(=O)NS(=O)(=O)c1ccc2c(c1)nc(-c1ccc(OCc3ccccc3)cc1)n2C1CCCCC1` [Example 22, [2-(4-Benzyloxy-phenyl)-1-cyclohexyl-1H-benzoimidazole-5-sulfonylamino]-3-oxo-acetic acid], for which inhibition was half-maximal at 8090 nM (IC50).
The same measure for `O=c1[nH]c(-c2ccc3c(c2)nc(-c2ccc(OCc4ccccc4)cc2)n3C2CCCCC2)no1` [Example 10, 3-{2-[4-(Benzyloxy)phenyl]-1-cyclohexyl-1H-benzimidazol-5-yl}-1,2,4-oxadiazol-5(4H)-one]: 850 nM; for `N#Cc1ccc(-c2ccc(C(=O)N3CCC(O)CC3)cc2COc2ccc(-c3nc4cc(-c5nnn[nH]5)ccc4n3C3CCCCC3)cc2)cc1` [Example 149]: 220 nM; for `O=C(O)CNC(=O)c1ccc(-c2ccc(F)c(Cl)c2)c(COc2ccc(-c3nc4cc(-c5nnn[nH]5)ccc4n3C3CCCCC3)cc2)c1` [Example 86]: 320 nM.
Turning to `O=C(O)c1ccc(-c2ccc3[nH]ccc3c2)c(COc2ccc(-c3nc4cc(-c5nnn[nH]5)ccc4n3C3CCCCC3)cc2)c1` [Example 121], half-maximal inhibition (IC50) was put at 30 nM.
The compound `CC(=O)c1ccc(-c2ccc(C(=O)O)cc2COc2ccc(-c3nc4cc(-c5nnn[nH]5)ccc4n3C3CCCCC3)cc2)s1` [Example 120] had an IC50 of 20 nM.
To `O=C(O)c1ccc(-c2cc(Cl)cc(Cl)c2)c(COc2ccc(-c3nc4cc(-c5nnn[nH]5)ccc4n3C3CCCCC3)cc2)c1` [Example 27] belongs 1010 nM; to `O=C(c1ccc(-c2ccc(F)c(Cl)c2)c(COc2ccc(-c3nc4cc(-c5nnn[nH]5)ccc4n3C3CCCCC3)cc2)c1)N(CCO)CCO` [Example 81], 1100 nM; to `CC(NC(=O)c1ccc(-c2cccc(O)c2)c(COc2ccc(-c3nc4cc(-c5nnn[nH]5)ccc4n3C3CCCCC3)cc2)c1)C(=O)OC(C)(C)C` (stereo not drawn) [Example 71], 520 nM.
The same measure for `O=C(O)CC(=O)NS(=O)(=O)c1ccc2c(c1)nc(-c1ccc(OCc3ccccc3)cc1)n2C1CCCCC1` [Example 20, 3-[2-(4-Benzyloxy-phenyl)-1-cyclohexyl-1H-benzoimidazole-5-sulfonylamino]-3-oxo-propionic acid]: 8200 nM.
The same measure for `CC(NC(=O)c1ccc(-c2ccc(F)c(Cl)c2)c(COc2ccc(-c3nc4cc(-c5nnn[nH]5)ccc4n3C3CCCCC3)cc2)c1)C(=O)OC(C)(C)C` (stereo not drawn) [Example 82]: 1300 nM; for `O=C(O)c1ccc(-c2cccc3cccnc23)c(COc2ccc(-c3nc4cc(-c5nnn[nH]5)ccc4n3C3CCCCC3)cc2)c1` [Example 123]: 440 nM.
As to `CC(NC(=O)c1ccc(-c2cccc(O)c2)c(COc2ccc(-c3nc4cc(-c5nnn[nH]5)ccc4n3C3CCCCC3)cc2)c1)C(=O)O` (stereo not drawn) [Example 52], the IC50 is 470 nM.
The same measure for `N#Cc1ccc(-c2ccc(C(=O)O)cc2COc2ccc(-c3nc4cc(-c5nnn[nH]5)ccc4n3C3CCCCC3)cc2)cc1` [Example 34]: 40 nM; for `O=C(c1ccc(-c2ccsc2)c(COc2ccc(-c3nc4cc(-c5nnn[nH]5)ccc4n3C3CCCCC3)cc2)c1)N(CCO)CCO` [Example 138]: 3000 nM.
To `COc1ccc(-c2ccc(Cl)cc2)c(COc2ccc(-c3nc4cc(-c5nnn[nH]5)ccc4n3C3CCCCC3)cc2)c1` [Example 3, 2-{4-[(4′-Chloro-4-methoxy-1,1′-biphenyl-2-yl)methoxy]phenyl}-1-cyclohexyl-5-(1H-tetrazol-5-yl)-1H-benzimidazole] belongs 140 nM; to `COc1ccc(-c2ccc(C(=O)O)cc2COc2ccc(-c3nc4cc(-c5nnn[nH]5)ccc4n3C3CCCCC3)cc2)cc1` [Example 25], 40 nM; to `O=C(c1ccc(-c2cccc(O)c2)c(COc2ccc(-c3nc4cc(-c5nnn[nH]5)ccc4n3C3CCCCC3)cc2)c1)N1CCCC1` [Example 66], 1400 nM.
In turn, `O=C(c1ccc(-c2cccc(O)c2)c(COc2ccc(-c3nc4cc(-c5nnn[nH]5)ccc4n3C3CCCCC3)cc2)c1)N(CCO)CCO` [Example 70] had an IC50 of 500 nM. Against the preceding compound, the IC50 is about 2.8-fold lower.
`CN1CCN(C(=O)c2ccc(-c3cccc(O)c3)c(COc3ccc(-c4nc5cc(-c6nnn[nH]6)ccc5n4C4CCCCC4)cc3)c2)CC1` [Example 64] came in with an IC50 of 1200 nM. This IC50 lies about 2.4-fold higher than the previous one.
`CC(C)(C)OC(=O)C(Cc1ccc(OC(C)(C)C)cc1)NC(=O)c1cccc(COc2ccc(-c3nc4cc(-c5nnn[nH]5)ccc4n3C3CCCCC3)cc2)c1` (stereo not drawn) [Example 51]: the IC50 worked out at 930 nM.
Compound `O=C(O)c1ccc(-c2ccco2)c(COc2ccc(-c3nc4cc(-c5nnn[nH]5)ccc4n3C3CCCCC3)cc2)c1` [Example 117] showed an IC50 of 290 nM. Against the preceding compound, the IC50 is about 3.2-fold lower.
To `CN1CCN(C(=O)c2ccc(-c3ccsc3)c(COc3ccc(-c4nc5cc(-c6nnn[nH]6)ccc5n4C4CCCCC4)cc3)c2)CC1` [Example 132] belongs 830 nM; to `O=C(O)CNC(=O)c1ccc(-c2ccc3[nH]cc(C(=O)C(F)(F)F)c3c2)c(COc2ccc(-c3nc4cc(-c5nnn[nH]5)ccc4n3C3CCCCC3)cc2)c1` [Example 153], 260 nM.
Consider `CC(=O)Nc1cccc(-c2ccc(C(=O)O)cc2COc2ccc(-c3nc4cc(-c5nnn[nH]5)ccc4n3C3CCCCC3)cc2)c1` [Example 32], for which 40 nM corresponded to half-maximal inhibition (IC50). Against the preceding compound, the IC50 is about 6.5-fold lower.
Compound `COc1ccc(-c2ccc(C(=O)NCCC(N)=O)cc2COc2ccc(-c3nc4cc(-c5nnn[nH]5)ccc4n3C3CCCCC3)cc2)cc1OC` [Example 63] had an IC50 of 150 nM.

Values taken from patent US6803374B2, “Compounds useful for treating hepatitis C virus” (priority 2001, dated 2004).
